Reference: patent publication US20230094832A1, “ANTIBODY-DRUG CONJUGATE COMPRISING IMMUNE CHECKPOINT INHIBITOR AND EXOSOME SECRETION INHIBITOR, AND PHARMACEUTICAL COMPOSITION COMPRISING SAME” (Research & Business Foundation Sungkyunkwan University, priority 2020, published 2023)

Legend:
[1] = test system: melanoma cell line B16F10; assay: Cytotoxicity evaluation by MTT assay; type: cell-based; conditions: B16F10 cells, 24 hours treatment at each concentration, FIG. 4
Description: In order to evaluate the cytotoxicity of Ab-VC-AMB prepared in Example 1, a melanoma cell line B16F10 (1×10^4) was attached to a 96-well plate, and after 24 hours, and the cell line was treated with Ab, AMB, AMB+Ab, and Ab-VC-AMB at each concentration, respectively. After 24 hours, the number of living cells was calculated by MTT assay. For this, 5 mg/ml MTT reagent was diluted 1/10 in the medium, and then 200 μl was added to each well of the 96-well plate. After the cells were cultured in an incubator for 1.5 hours, the MTT reagent was removed, and 200 μl of DMSO was added to each well of the 96-well plate. After the cells were cultured at room temperature for 30 minutes, cell viability was calculated by confirming the absorbance at 570 nm.

B16F10 melanoma tumors = assay: Therapeutic efficacy (tumor volume) in B16F10 cancer animal model; type: in vivo; conditions: B16F10 mice, FIGS. 5 and 6
Description: (§1) In order to evaluate the therapeutic efficacy of Ab-VC-AMB prepared in Example 1 in a disease animal model, a cancer animal model was produced by subcutaneously inoculating B16F10 (1×10^6 cells), which is a melanoma cell line, into mice and allowing tumors to grow for 10 days (Day 0). Thereafter, on days 1, 4, 7 and 10, Ab-VC-AMB, saline, an antibody (Ab) or AMB was injected intravenously into the cancer animal model (Ab 5 mg/kg, AMB 10 mg/kg, Ab-VC-AMB 5 mg/kg), and then the therapeutic efficacy was evaluated for 11 days.

[2] = design: species or system mice; conditions: mouse, in vivo, iv
Description: as §1

[3] = test system: major organs (liver, lungs, spleen, kidneys, and heart) and cancer tissue; assay: Histopathological evaluation by H&E staining; type: in vivo, mice; conditions: cancer tissue compared to the control, FIG. 8
Description: A histopathological evaluation was performed by removing major organs and cancer tissue and staining the tissue by a hematoxylin and eosin (H&E) staining method. For this purpose, the major organs (liver, lungs, spleen, kidneys, and heart) and cancer tissue were removed, placed in a cassette, and fixed in a fixative solution. Then, after a paraffin block was prepared, a sample was prepared with a thickness of 6 μm. After the sample was stained with a Harris hematoxylin staining solution and an eosin-phloxine staining solution, the sample was observed through a slide scanner.

exosomes in plasma = assay: Exosomal total protein amount in plasma exosomes (BCA analysis); type: in vivo, mice; conditions: plasma exosomes after efficacy study, compared to the Ab control, FIG. 9
Description: (§2) To evaluate the ability of Ab-VC-AMB prepared in Example 1 to inhibit the secretion of exosomes, after the animal model for which the therapeutic efficacy evaluation was completed was sacrificed, plasma was isolated, and exosomes were isolated and extracted using an exosome isolation kit (Invitrogen total exosome isolation reagent). The amount of protein was measured by performing BCA analysis (bicinchoninic acid assay) on the isolated exosomes. Albumin standards diluted to various concentrations and 150 μl of an unknown sample whose protein amount was not known were put into a 96-well plate, respectively. 150 μl of a working reagent containing bicinchoninic acid from a BCA protein […] kit (Pierce) was placed in each well containing each sample, and the resulting mixture was shaken and mixed well, and then incubated at 37° C. for 2 hours. Thereafter, the protein concentration of exosomes was calculated by measuring the absorbance at 562 nm using a microplate reader.

[4] = test system: PD-L1 on the surface of exosomes; assay: Exosomal PD-L1 quantified by ELISA; type: in vivo, mice; conditions: plasma exosomes after efficacy study, compared to the other groups, FIG. 10
Description: as §2
In addition, PD-L1 on the surface of exosomes, which is a factor known to suppress the activity of T cells, was quantified through ELISA analysis. A 96-well plate was coated with 2 μg/ml PD-L1 antibody incubated at 4° C. for 16 hours […]. […] Absorbance at 450 nm was measured using a microplate reader.

SMILES	cytotoxicity (cell viability) [1]	volume of cancer compared to the Ab control (B16F10 melanoma tumors; i.v. on days 1, 4, 7 and 10, Ab-VC-AMB 5 mg/kg vs Ab 5 mg/kg, 11 days)	cancer volume compared to the control to which saline was administered (B16F10 melanoma tumors; i.v. on days 1, 4, 7 and 10, Ab-VC-AMB 5 mg/kg, evaluated for 11 days) [%]	changes in body weight (toxicity) [2]	cell death area in the cancer tissue (H&E) [3]	amount of exosomal protein (exosomes in plasma)	exosomal PD-L1 level [4]
COC(c1ccccc1)(c1ccccc1)[C@H](Oc1nc(C)cc(C)n1)C(=O)O [AMB, ambrisentan, reference compound]	does not have a direct relationship with toxicity affecting cells						
COC(c1ccccc1)(c1ccccc1)C(Oc1nc(C)cc(C)n1)C(=O)OCc1ccc(NC(=O)C(CCCNC(N)=O)CC(=O)C(NC(=O)CCCCCN2C(=O)CC(SC)C2=O)C(C)C)cc1 (centres unmarked) [Ab-VC-AMB]	high biocompatibility	about 45%	24	does not show toxicity	a large cell death area in the cancer tissue was observed compared to the control	statistically significant low amount of exosomal protein compared to the Ab control	tendency to decrease remarkably
